{"source": "patent US11045456B2", "about": "“Compositions and methods for treating COPD and other inflammatory conditions” (Georgia State University Research Foundation, Inc., priority 2015, dated 2021)", "key": {"PDE4B [1]": {"tested_on": "PDE4B", "experiment": "PDE4B mRNA expression in lung tissues of NTHi-inoculated mice", "conditions": "mice, Rof 5 mg/kg i.p. 2 hours before intratracheal NTHi 5×10^7 cfu per lung, after 5 hours"}, "[2]": {"tested_on": "Group A chemokines (CCL5, CCL7, CXCL10, CXCL11)", "experiment": "IKKβ-CA-induced Group A-chemokine expression in PDE4B2-transfected cells", "assay_type": "cell-based, human", "conditions": "up to 10 μM", "quoted_text": "(§3) Plasmids, transfections and luciferase assay. […] Empty vector was used as a control and was also added where necessary to ensure an equivalent amount of input DNA. All transient transfections were carried out in triplicate using TRANSIT-LT1® reagent (Minis) following the manufacturer's instruction."}, "NF-κB promoter": {"tested_on": "NF-κB promoter", "experiment": "IKKβ-CA-induced NF-κB promoter activity (luciferase) in PDE4B2-transfected cells", "assay_type": "cell-based, human", "conditions": "up to 10 μM", "quoted_text": "as §3"}, "p65 or PKA-Cβ": {"tested_on": "p65 or PKA-Cβ", "experiment": "Nuclear expression level of p65 or PKA-Cβ in BEAS-2B cells", "assay_type": "cell-based, human", "method": "Subcellular fractionation. Cells were washed twice and […] with ice cold PBS and centrifuged at 3,000×g for 5 min. The cells were then suspended with Buffer A (10 mM HEPES at pH7.4, 10 mM KCl, 0.1 mM EDTA, 0.1 mM EGTA, 1 mM DTT, supplemented with 1 mM Na3VO4 and PIC) and incubated on ice for 10 min (Schreiber et al., Nucleic Acids Res. 17(15):6419, 1989). The cells were lysed by adding NP40 (0.5%) and vortexing for 15 sec. then centrifuged at 3,000×g for 5 min before the supernatants were removed (cytosol fraction). Precipitates were resuspended in Buffer B (20 mM HEPES at pH7.5, 5 mM NaCl, 1 mM EDTA, […], 1 mM DTT, supplemented with 1 mM Na3VO4 and PIC) and incubated on ice for 10 min. before vortexing and centrifuging at 16,000×g for 15 min to recover the supernatants (nuclear fraction). Western blot. Whole-cell extracts and mouse lung tissue extracts were recovered with lysis buffer (50 mM Tris-HCl at pH7.4, 1% NP40, 0.25% deoxycholate, 150 mM NaCl, 1 mM EDTA, 1 mM NaF, supplemented with 1 mM Na3VO4 and PIC). For PDE4B protein, cell extracts were recovered with Buffer A as described above. Cell or tissue extracts were separated on 8% SDS-PAGE gels and transferred to polyvinylidene difluoride (PVDF) membrane (GE Healthcare Life Sciences). The membrane was blocked with a solution of TBS containing 0.1% Tween 20 (TBS-T) and 5% non-fat dry milk. […]"}, "PDE4B2 [3]": {"tested_on": "PDE4B2", "experiment": "PDE4B2 protein expression (Western blot) in mouse lung tissue extracts", "assay_type": "in vivo", "conditions": "NTHi and roflumilast", "quoted_text": "(§4) Western blot. Whole-cell extracts and mouse lung tissue extracts were recovered with lysis buffer (50 mM Tris-HCl at pH7.4, 1% NP40, 0.25% deoxycholate, 150 mM NaCl, 1 mM EDTA, 1 mM NaF, supplemented with 1 mM Na3VO4 and PIC). For PDE4B protein, cell extracts were recovered with Buffer A as described above. Cell or tissue extracts were separated on 8% SDS-PAGE gels and transferred to polyvinylidene difluoride (PVDF) membrane (GE Healthcare Life Sciences). The membrane was blocked with a solution of TBS containing 0.1% Tween 20 (TBS-T) and 5% non-fat dry milk. The membrane was then incubated in a 1:1,000-1:2,000 dilution of a primary antibody in 5% BSA-TBS-T. After washing (×3) with TBS-T, the membrane was incubated with a 1:5,000 dilution of the corresponding secondary antibody in 2.5% non-fat dry milk-TBS-T. Respective proteins were visualized using Amersham ECL Prime Regent (GE Healthcare Life Sciences).\nMice and animal experiments. […]\nImmunofluorescent staining. Formalin-fixed paraffin-embedded mouse lung tissue was sectioned (4 μm) and PDE4B protein was detected using a rabbit anti-PDE4B and an FITC-conjugated goat anti-rabbit IgG (Santa Cruz Biotechnology). Stained sections were then imaged, and images were recorded under light- and fluorescence-microscopy systems (AxioVert 40 CFL, AxioCam MRC, and AxioVision LE Image system, Carl Zeiss)."}, "PDE4A and 4C": {"tested_on": "PDE4A and 4C", "experiment": "Expression of other PDE4 family members (PDE4A, 4C) in BEAS-2B cells", "assay_type": "cell-based, human", "conditions": "NTHi or roflumilast", "text": "(§1) Cell culture. All media described below were supplemented with 10% fetal bovine serum (Sigma-Aldrich). Human bronchial epithelial BEAS-2B cells were maintained in RPMI medium (Life Technologies) (ATCC® CRL-9609™). Human primary bronchial epithelial NHBE (Lonza) cells were maintained in bronchial epithelial growth media (BEGM) supplemented with BEGM SingleQuots (Jono et al., J. Biol. Chem. 277(47):45547-45557, 2002). BEAS-2B cells stably expressing human PDE4B2 (PDE4B2-stable cells) were obtained by plasmid transfection following Geneticin selection (300 μg/mL). Cells were cultured in a humidified atmosphere of 5% CO2 at 37° C."}, "p65": {"tested_on": "p65", "experiment": "p65 phosphorylation by Phos-tag PAGE in BEAS-2B cells", "assay_type": "cell-based, human", "conditions": "roflumilast as co-treatment with NTHi", "method": "Phos-tag PAGE. Recombinant p65 proteins or nuclear extracts recovered without EDTA/EGTA were separated by SDS-PAGE, with 6% gels containing 50 μM Mn^2+-Phos-tag Acrylamide and transferred to PVDF membrane according to the manufacture's instructions (Kinoshita et al., Mol. Cell. Proteomics 5(4):749-757, 2006."}, "PDE4": {"tested_on": "PDE4", "conditions": "estimated; Bender and Beavo; cited from earlier work"}, "PDE4B [4]": {"tested_on": "PDE4B", "experiment": "PDE4B mRNA expression (Q-PCR) in primary NHBE cells stimulated with NTHi", "assay_type": "cell-based, human", "conditions": "Rof 0.1 μM 1 hour, then 1.5-hour NTHi", "method": "(§2) Bacterial strains and culture condition. Clinical isolates of NTHi strain 12 were used in this study (Ishinaga et al., EMBO J., 26(4):1150-1162, 2007). Bacteria were grown on chocolate agar plates at 37° C. in an atmosphere of 5% CO2 overnight and subsequently inoculated in brain heart infusion (BHI) broth supplemented with 3.5 μg/mL NAD and hemoglobin (BD Biosciences). After overnight incubation, the bacteria were subcultured into fresh broth and the log phase bacteria, monitored by measurement of optical density (OD) value, were washed and suspended in DMEM for in vitro cell experiments and in isotonic saline for in vivo animal experiments. For all in vitro experiments except the dose dependent experiment, NTHi was treated at multiplicity of infection (MOI) of 50.\nas §1, with “Cells were cultured in a humidified atmosphere of 5% CO2 at 37° C.” left out"}, "PDE4D": {"tested_on": "PDE4D", "experiment": "Expression of PDE4D in BEAS-2B cells", "assay_type": "cell-based, human", "conditions": "NTHi or roflumilast"}, "[5]": {"tested_on": "CCL5, CCL7, CXCL10 and CXCL11", "experiment": "NTHi-induced chemokine expression in PDE4B2-stable cells", "assay_type": "cell-based, human"}, "PDE4B [6]": {"tested_on": "PDE4B", "experiment": "PDE4B mRNA expression (Q-PCR) in BEAS-2B cells stimulated with NTHi", "assay_type": "cell-based, human", "conditions": "for PDE4B mRNA expression: BEAS-2B, relative to control", "method": "as §2, §1"}, "PDE4B2 [7]": {"tested_on": "PDE4B2", "experiment": "PDE4B2 protein expression (Western blot) in airway epithelial cell extracts", "assay_type": "cell-based, human", "conditions": "NTHi and roflumilast", "quoted_text": "as §4"}, "[8]": {"conditions": "cells overexpressing PDE4B2-WT or PDE4B2-D392A"}, "[9]": {"conditions": "cells transfected with PDE4B2-D392A"}}}
{"compound": "O=C(Nc1c(Cl)cncc1Cl)c1ccc(OC(F)F)c(OCC2CC2)c1", "note": "[roflumilast]", "values": [{"measurement": "PDE4B mRNA expression in lung tissues", "setting": "PDE4B [1]", "result": "synergistically enhanced"}, {"measurement": "PDE4B mRNA expression in lung tissues", "setting": "PDE4B [1]; listed as Rof", "result": "significantly elevated"}, {"measurement": "IKKβ-CA-induced Group A-chemokine expression", "setting": "[2]; [8]", "result": "unable to fully inhibit"}, {"measurement": "IKKβ-CA-induced Group A-chemokine expression", "setting": "[2]; [9]", "result": "unable to fully inhibit"}, {"measurement": "IKKβ-CA-induced NF-κB promoter activity", "setting": "NF-κB promoter; [8]", "result": "unable to fully inhibit"}, {"measurement": "IKKβ-CA-induced NF-κB promoter activity", "setting": "NF-κB promoter; [9]", "result": "unable to fully inhibit"}, {"measurement": "nuclear expression level of p65 or PKA-Cβ", "setting": "p65 or PKA-Cβ", "result": "did not affect"}, {"measurement": "~70-kDa PDE4B isoform (PDE4B2 protein)", "setting": "PDE4B2 [3]", "result": "induced an increase"}, {"measurement": "expression of PDE4A and 4C", "setting": "PDE4A and 4C", "result": "not up-regulated"}, {"measurement": "phosphorylation of p65 (induction)", "setting": "p65", "result": "induced phosphorylation of p65"}, {"measurement": "IC50", "setting": "PDE4", "result": "< 1", "unit": "nM"}, {"measurement": "PDE4B mRNA expression", "setting": "PDE4B [4]", "result": "increasing PDE4B mRNA significantly"}, {"measurement": "expression of PDE4D", "setting": "PDE4D", "result": "up-regulated by NTHi or roflumilast but no significant synergistic effect"}, {"measurement": "NTHi-induced expression of CCL5, CCL7, CXCL10 and CXCL11 (Group A-chemokines)", "setting": "[5]; highest concentration tested (10 μM)", "result": "unable to fully inhibit"}, {"measurement": "NTHi-induced expression of CXCL10 and CXCL11", "setting": "[5]; lower dose of roflumilast (<1 μM)", "result": "slightly enhanced"}, {"measurement": "PDE4B expression at the mRNA level", "setting": "PDE4B [6]; BEAS-2B cells, roflumilast with NTHi, Q-PCR, dose-dependent", "result": "synergized with NTHi to up-regulate PDE4B expression"}, {"measurement": "PDE4B mRNA expression", "setting": "PDE4B [6]; Rof 0.1 μM 1 h, then 1.5-hour NTHi at MOI of 25, 50, and 100", "result": "increased"}, {"measurement": "PDE4B mRNA expression", "setting": "PDE4B [6]; Rof 0.01, 0.1, and 1 μM 1 h, then 1.5-hour NTHi", "result": "increased"}, {"measurement": "~70-kDa PDE4B isoform (PDE4B2 protein)", "setting": "PDE4B2 [7]", "result": "induced an increase"}]}
